Experimental findings from ChEMBL document CHEMBL1212761, “Biologic activities of the TolC-like protein of Neisseria meningitidis as assessed by functional complementation in Escherichia coli” (2010) are described below.

Broadly, the MIC is the lowest concentration that inhibits growth of the organism. Higher therefore signals weaker potency.

Molecules are shown by their SMILES. Values after ≈ are worked out from the molar mass of the structure shown.

What all share (format): functional
Assay [1] relates to Neisseria meningitidis. Put plainly: Antimicrobial activity against Neisseria meningitidis M7 by agar dilution method. (In general: Agar dilution tests growth on a series of plates holding different concentrations.)
For assay [2], the system named is Neisseria meningitidis. Nature of the assay: Antimicrobial activity against Neisseria meningitidis M7tolC::Kan by agar dilution method.
For assay [3], the system named is Neisseria meningitidis. Nature of the assay: Antimicrobial activity against Neisseria meningitidis M7mtrE::Spc by agar dilution method.
In assay [4] the test system is Neisseria meningitidis. Put plainly: Antimicrobial activity against Neisseria meningitidis M7tolC::Kan mtr::Spc by agar dilution method.
The test system of assay [5] is Escherichia coli. Put plainly: Antimicrobial activity against Escherichia cloi RAM1129 transfected with pGCC4 containg IPTG-inducible lacZ promoter by agar dilution method.
Assay [6] deals with Escherichia coli. Nature of the assay: Antimicrobial activity against Escherichia cloi RAM1129 transfected with pNK1 containg Neisseria meningitidis tolC gene by agar dilution method.
The test system of assay [7] is Escherichia coli. Nature of the assay: Antimicrobial activity against Escherichia cloi RAM4100 transfected with pGCC4 containg IPTG-inducible lacZ promoter by agar dilution method.
For assay [8], the system named is Escherichia coli. Nature of the assay: Antimicrobial activity against Escherichia cloi RAM4100 transfected with pNK1 containg Neisseria meningitidis tolC gene by agar dilution method.
Assay [9] concerns Escherichia coli. Nature of the assay: Antimicrobial activity against Escherichia coli RAM4100 by agar dilution method.
Assay [10] relates to Escherichia coli. Put plainly: Antimicrobial activity against Escherichia coli RAM1129 by agar dilution method.

Take `CC[C@H]1OC(=O)[C@H](C)[C@@H](O[C@H]2C[C@@](C)(OC)[C@@H](O)[C@H](C)O2)[C@H](C)[C@@H](O[C@@H]2O[C@H](C)C[C@H](N(C)C)[C@H]2O)[C@](C)(O)C[C@@H](C)CN(C)[C@H](C)[C@@H](O)[C@]1(C)O` [AZITHROMYCIN]: the MIC in the assay with Neisseria meningitidis [1] came to 2 µg/mL (≈ 2.67 µM); with Neisseria meningitidis [2], 2 µg/mL (≈ 2.67 µM); with Neisseria meningitidis [3] it was 0.125 µg/mL (≈ 0.167 µM); with Neisseria meningitidis [4], 0.125 µg/mL (≈ 0.167 µM).
For the compound `CC[C@H](C)[C@H](NC(=O)[C@H](CCCCN)NC(=O)[C@H](CCC(=O)O)NC(=O)[C@H](CCCCN)NC(=O)[C@H](CO)NC(=O)[C@H](CCCCN)NC(=O)[C@H](CCCNC(=N)N)NC(=O)[C@H](Cc1ccccc1)NC(=O)[C@H](Cc1ccccc1)NC(=O)[C@H](CC(=O)O)NC(=O)CNC(=O)[C@H](CC(C)C)NC(=O)[C@@H](N)CC(C)C)C(=O)NCC(=O)N[C@@H](CCCCN)C(=O)N[C@@H](CCC(=O)O)C(=O)N[C@@H](Cc1ccccc1)C(=O)N[C@@H](CCCCN)C(=O)N[C@@H](CCCNC(=N)N)C(=O)N[C@H](C(=O)N[C@H](C(=O)N[C@@H](CCC(N)=O)C(=O)N[C@@H](CCCNC(=N)N)C(=O)N[C@H](C(=O)N[C@@H](CCCCN)C(=O)N[C@@H](CC(=O)O)C(=O)N[C@@H](Cc1ccccc1)C(=O)N[C@@H](CC(C)C)C(=O)N[C@@H](CCCNC(=N)N)C(=O)N[C@@H](CC(N)=O)C(=O)N[C@@H](CC(C)C)C(=O)N[C@H](C(=O)N1CCC[C@H]1C(=O)N[C@@H](CCCNC(=N)N)C(=O)N[C@H](C(=O)N[C@@H](CCC(=O)O)C(=O)N[C@@H](CO)C(=O)O)[C@@H](C)O)C(C)C)[C@@H](C)CC)C(C)C)[C@@H](C)CC` [CATHELICIDIN], the MIC came to 7.8 µg/mL (≈ 1.74 µM) in the assay on Neisseria meningitidis [1], 7.8 µg/mL (≈ 1.74 µM) in the assay on Neisseria meningitidis [2], 1.98 µg/mL (≈ 0.441 µM) in the assay on Neisseria meningitidis [3] and 1.98 µg/mL (≈ 0.441 µM) against Neisseria meningitidis [4].
`O=C(O)c1cn(C2CC2)c2cc(N3CCNCC3)c(F)cc2c1=O` [CIPROFLOXACIN]: the MIC in the assay with Neisseria meningitidis [1], against Neisseria meningitidis [2], in the assay on Neisseria meningitidis [3] and against Neisseria meningitidis [4] was 0.02 µg/mL (≈ 0.0604 µM) in each case.
For `CC[C@H]1OC(=O)[C@H](C)[C@@H](O[C@H]2C[C@@](C)(OC)[C@@H](O)[C@H](C)O2)[C@H](C)[C@@H](O[C@@H]2O[C@H](C)C[C@H](N(C)C)[C@H]2O)[C@](C)(O)C[C@@H](C)C(=O)[C@H](C)[C@@H](O)[C@]1(C)O` [ERYTHROMYCIN], the MIC in the assay on Escherichia coli [5] turned out to be 5 µg/mL (≈ 6.81 µM); with Escherichia coli [6], 5 µg/mL (≈ 6.81 µM); against Escherichia coli [7], 300 µg/mL (≈ 409 µM); in the assay on Escherichia coli [8], 300 µg/mL (≈ 409 µM).
On to `CN(C)c1ccc(C(=C2C=CC(=[N+](C)C)C=C2)c2ccc(N(C)C)cc2)cc1.[Cl-]` [GENTIAN VIOLET], for which the MIC is > 40 µg/mL with Escherichia coli [9], 1.5 µg/mL in the assay with Escherichia coli [10], 1.5 µg/mL in the assay with Escherichia coli [5] and > 40 µg/mL against Escherichia coli [6].
Turning to `CC[n+]1c(-c2ccccc2)c2cc(N)ccc2c2ccc(N)cc21.[Br-]` [HOMIDIUM BROMIDE], the MIC against Neisseria meningitidis [1] was 12 µg/mL; against Neisseria meningitidis [2], 12 µg/mL; against Neisseria meningitidis [3] it was 0.75 µg/mL; in the assay on Neisseria meningitidis [4], 0.75 µg/mL; with Escherichia coli [9], > 200 µg/mL; in the assay with Escherichia coli [10], 5 µg/mL. For the same compound, the MIC against Escherichia coli [5] is 5 µg/mL; with Escherichia coli [6], > 200 µg/mL.
For `CO[C@@H]1[C@@H](OC(N)=O)[C@@H](O)[C@H](Oc2ccc3c(O)c(NC(=O)c4ccc(O)c(CC=C(C)C)c4)c(=O)oc3c2C)OC1(C)C` [NOVOBIOCIN], the minimal inhibitory concentration (MIC) against Escherichia coli [9] is 500 µg/mL (≈ 816 µM); against Escherichia coli [10], 40 µg/mL (≈ 65.3 µM); in the assay with Escherichia coli [5], 40 µg/mL (≈ 65.3 µM); against Escherichia coli [6], 500 µg/mL (≈ 816 µM).
As to `CCCCCCCCCCCCCCCC(=O)O` [PALMITIC ACID], the MIC against Neisseria meningitidis [1] came out at 400 µg/mL (≈ 1560 µM); in the assay on Neisseria meningitidis [2], 400 µg/mL (≈ 1560 µM); with Neisseria meningitidis [3], 50 µg/mL (≈ 195 µM); against Neisseria meningitidis [4], 50 µg/mL (≈ 195 µM).
